Assay results from patent US20080279907A1, “Antimicrobial medical devices and methods for making and using same” (Ash Access Technology, Inc., priority 2007, published 2008).
“And” between values parts separate entries of the source, which are not always exact repeats. Equal entries are not always repeated.

Key:
Format in all cases: physicochemical
[1] = Perfusion of parabens and methylene blue through polycarbonate membrane in perfusion chamber (HPLC of lower chamber); conditions: for perfusion of methylene blue through membrane without activation: only 1,2-propanediol solution, absence of Citrate and activation by AA, after 4.5 days (Treatments 1 and 2)
Experimental: An experiment was performed to determine a method for perfusing methylene blue, methyl paraben, and propyl paraben through a polycarbonate membrane with causing only minimal changes to the strength and elasticity of the membrane. In FIG. 12, there is illustrated a perfusion chamber system 50 used during the experiment. System 50 includes an upper chamber 51 and a lower chamber 52 separated by a polycarbonate membrane 53 having a thickness of 0.60 mm. The upper and lower chambers 51, 52 are generally structured to hold 10.5 cm^3 or 10.5 ml of fluid. The upper chamber 51 was connected to a peristaltic pump (not shown) and the lower chamber 52 was filled with distilled water. First and second solutions, respectively including the parabens and the methylene blue, were prepared in accordance with the method set forth in EXAMPLE 6 above. As best seen in Tables 6 and 7 below, the solutions were connected to the pump and passed through the first chamber 51 at a constant rate at 37° C. over various lengths of time.
Table 6 includes data obtained from HPLC analysis comparing the methyl paraben, propyl paraben, and methylene blue concentrations in the lower chamber 52. The parameters for the methyl and propyl paraben and methylene blue treatments are indicated in the left hand columns.

[2] = Desorption of methylene blue from impregnated catheter pieces in 0.9% saline (HPLC)
Experimental: In another form of the present application, one inch polycarbonate catheter pieces including a surface area of about 4.64 cm^2 were impregnated with methylene blue. A solution of 0.24 M sodium citrate buffer pH 4.5 was prepared with 100 mg % methylene blue activated by 2% L-ascorbic acid immediately beforehand. Catheter pieces were placed in flasks containing the solution and the flasks were placed on a shaker at 220 rpm and 27° C. for 3 hours.
Desorption analysis of the methylene blue impregnated catheter pieces was performed in a 0.9% solution of saline. The total amount of methylene blue released from the catheter pieces was calculated using HPLC analysis performed with a Waters Alliance 2690 including a 996 Photodiode Array Detector according to conditions in Example 4. The results of the HPLC analysis corresponding to the desorption of methylene blue from the methylene blue impregnated polymeric material are set forth in the graph of FIG. 10.
One inch polycarbonate catheter pieces including a surface area of about 4.64 cm^2 were impregnated with methyl paraben and propyl paraben. A solution of 100% 1,2-propanediol was prepared with 9% methyl paraben and 2% propyl paraben. Pairs of the one inch catheter pieces were placed into three 25 ml flasks including 10 ml of parabens solution. The flasks were placed on a shaker at 220 rpm and 27° C. for two, four, or nine hours. At the end of each time period, the catheter pieces were removed, rinsed with distilled water, and dried.
The catheter pieces were then impregnated with methylene blue. A solution of 0.24 M sodium citrate buffer with a pH of 4.5 was prepared with 100 mg % methylene blue activated by 2% L-ascorbic acid immediately beforehand. Catheter pieces were placed in flasks containing the solution and the flasks were placed on a shaker at 220 rpm and 27° C. for 3 hours. Desorption analysis of the parabens and methylene blue impregnated catheter pieces was performed in a 0.9% solution of saline according to the method described earlier.

[3] = Leaching of methylene blue from treated catheter into normal saline replaced monthly; conditions: catheter treated with only methylene blue
Source text: When the saline is replaced with fresh saline, exactly the same intense blue color developed in the fresh saline solution during the second month. This process of replacing the saline solution can be continued, that is, replacing the saline solution with fresh solution monthly, for at least nine months. The color resulting during the sixth month in the fresh saline solution is a light blue. If the process is continued for an additional 3 months or up to a total of 9 months, the resulting fresh saline solution is light blue in color, but the release of the dye continues.

[4] = Total methylene blue loaded onto and released from polycarbonate discs and catheters, desorbed in MeOH (0.1% TFA), UV 662 nm
Experimental: An experiment was performed in order to determine the total amount of methylene blue that was loaded onto a polycarbonate disc in comparison to a polycarbonate catheter. The discs were 1.27 cm or 0.5 inches in diameter and included a surface area of 2.53 cm^2 and a thickness of 0.60 mm. The catheter pieces were 1″ long and included a surface area of 4.64 cm^2 and a thickness of 0.51 mm. A 160 ml solution of 0.24 M sodium citrate was prepared into which 0.1% or […] of methylene blue was added. Then, 2%, or 3.2 g of ascorbic acid, was added to the solution and mixed for 1-2 minutes and 10 ml of the solution was placed into 25 ml flasks. The discs and catheter pieces were rinsed and placed into the 25 ml flasks of solution and placed on a shaker at 220 rpm at 37° C. for three hours. The catheter pieces and discs were removed, rinsed with distilled water, and dried. The catheter pieces and discs were desorbed in 20 ml of MeOH (w/0.1% TFA) and placed on the shaker until the membranes appeared whitish in color. Appropriate dilutions were made and the UV absorbance was measured at 662 nm. The methylene blue concentration was calculated based on a standard curve generated in a similar manner. The results are set forth below in Table 4 and 5.

[5] = No Parabens, MB treatment 3 hrs 0.24 M Citrate buffer, 4.5 pH
[6] = paraben treatment 2 hrs- 100% PG, 9% MP, 2% PP, MB treatment 3 hrs
[7] = paraben treatment 4 hrs- 100% PG, 9% MP, 2% PP, MB treatment 3 hrs
[8] = paraben treatment 9 hrs- 100% PG, 9% MP, 2% PP, MB treatment 3 hrs
[9] = flat polycarbonate disc (discs 1-4), NO Parabens, MB treatment 3 hrs 0.24M Citrate Buffer, 4.5 pH, 100 mg % MB, 2% AA

Compound: CN(C)c1ccc2nc3ccc(=[N+](C)C)cc-3sc2c1 [MB, methylene blue]
- time to perfuse through the membrane ([1]; activated MB solution (citrate, AA), 0.60 mm polycarbonate membrane): ~10 days
- concentration of methylene blue in lower chamber, in words ([1]; after 10 days of flow by activated solution): not significant
- Total mg MB in 10.5 mL lower chamber ([1]; lower chamber, parabens ~9 hrs at 37 C., then activated MB sol'n ~10 days): 0.0105 mg
- MB conc ([1]; lower chamber, parabens ~9 hrs at 37 C., then activated MB sol'n ~10 days, changed every 1 day): 0.001 mg/mL
- perfusion of methylene blue through membrane without activation ([1]; listed as Methylene blue): would not perfuse
- perfusion of methylene blue through membrane without activation ([1]; listed as methylene blue): minimal
- period of significant release of methylene blue ([2]; catheters preincubated with parabens, 0.9% saline): 10 days
- methylene blue release at the conclusion of the 81st day ([2]; catheters pretreated with parabens, 0.9% saline (FIG. 11)): a small amount of methylene blue still being released
- methylene blue release during the last 20 days of the experiment ([2]; catheters treated only with methylene blue, 0.9% saline (FIG. 10)): negligible release
- duration of release of the dye from treated catheter [3]: ≥ 9 months
- factor by which flat discs exceed catheters in total sorption and desorption of methylene blue per cm^2 ([4]; Tables 4 and 5, no parabens): ~6.8
- Average ug/cm^2 MB released ([4]; average of flat discs 1-4, NO Parabens, MB treatment 3 hrs): 1942.8 ug/cm^2
- % MB released from catheter in saline desorption/total released in MeOH (0.1% TFA) [4, 5]: 58.8%
- mg released based on 1″ of catheter [4, 5]: 1.32 mg
- mg released per cm^2 of catheter [4, 5]: 0.284 mg per cm^2
- ug released per cm^2 of catheter [4, 5]: 284.5 ug per cm^2
- % MB released from catheter in saline desorption/total released in MeOH (0.1% TFA) [4, 6]: 73.2%
- mg released based on 1″ of catheter [4, 6]: 1.65 mg
- mg released per cm^2 of catheter [4, 6]: 0.356 mg per cm^2
- ug released per cm^2 of catheter [4, 6]: 356.3 ug per cm^2
- % MB released from catheter in saline desorption/total released in MeOH (0.1% TFA) [4, 7]: 65.5%
- mg released based on 1″ of catheter [4, 7]: 1.71 mg
- mg released per cm^2 of catheter [4, 7]: 0.368 mg per cm^2
- ug released per cm^2 of catheter [4, 7]: 368.5 ug per cm^2
- % MB released from catheter in saline desorption/total released in MeOH (0.1% TFA) [4, 8]: 76.4%
- mg released based on 1″ of catheter [4, 8]: 1.78 mg
- mg released per cm^2 of catheter [4, 8]: 0.384 mg per cm^2
- ug released per cm^2 of catheter [4, 8]: 383.6 ug per cm^2
- Amt MB (mg) released per square cm (mg/2.53 cm^2) on disc [4, 9]: 1.95 mg per square cm and 1.92 mg per square cm and 1.93 mg per square cm and 1.96 mg per square cm
- Average amount (mg) released per disc [4, 9]: 4.94 mg and 4.87 mg and 4.88 mg and 4.97 mg
- ug/cm^2 MB released, flat disc [4, 9]: 1954.1 ug/cm^2 and 1923.6 ug/cm^2 and 1929.0 ug/cm^2 and 1964.3 ug/cm^2
